According to PubChem BioAssay (NCI):
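Growth conditions: 96-well plates. Treatment: test compound, 48 hours, 5 concentrations. Analysis: linear interpolation between bracketing concentrations; unreached endpoints set to highest concentration. Abbreviation: GI50, concentration required for 50% inhibition of growth. TGI is the concentration that stops growth completely.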

Tests used:
Assay in all cases: NCI anticancer screen, dose series, 48 h
[1] = test system: 786-0 renal
[2] = test system: UACC-257 melanoma
[3] = test system: EKVX NSCLC
[4] = test system: KM12 colon
[5] = test system: MCF7 breast
[6] = test system: HCC-2998 colon
[7] = test system: CAKI-1 renal
[8] = test system: NCI-H522 lung
[9] = test system: LOX IMVI melanoma
[10] = test system: SF-539 CNS

SMILES: CN(C)c1nc(=NCc2ccncc2)ss1
- TGI [1]: 31.5 µM
- TGI [2]: > 61.2 µM
- TGI [3]: > 100 µM
- GI50 [4]: > 100 µM
- TGI [4]: > 100 µM
- TGI [5]: > 100 µM
- TGI [6]: > 100 µM
- TGI [7]: > 56.3 µM
- TGI [8]: > 100 µM
- TGI [9]: 31.1 µM
- TGI [10]: > 67 µM

SMILES: O=C(Nc1cccc2cnccc12)c1cc2c(cc1Cl)Sc1nccn1S2(=O)=O
- TGI [1]: 33.1 µM
- TGI [2]: 45.1 µM
- TGI [3]: 52.8 µM
- TGI [4]: 21.9 µM
- TGI [5]: 37.1 µM
- TGI [6]: 29.9 µM
- TGI [7]: 91.5 µM
- TGI [8]: 33.2 µM
- TGI [9]: 31.8 µM
- TGI [10]: 59.3 µM

SMILES: C=C(Cl)/C(=C\Cl)CCC(Br)C(C)C (centres undefined)
- TGI [1]: > 100 µM
- TGI [2]: > 100 µM
- TGI [3]: > 100 µM
- TGI [4]: > 100 µM
- TGI [5]: > 100 µM
- TGI [6]: > 100 µM
- TGI [7]: > 100 µM
- TGI [8]: 39.9 µM
- TGI [9]: 31.4 µM
- TGI [10]: > 100 µM

SMILES: O=C1c2ccccc2CN1c1ccc(O)cc1
- TGI [1]: > 100 µM
- TGI [2]: > 100 µM
- TGI [3]: > 100 µM
- TGI [4]: > 100 µM
- TGI [5]: > 100 µM
- TGI [6]: > 100 µM
- TGI [7]: > 100 µM
- TGI [8]: > 100 µM
- TGI [9]: > 100 µM
- TGI [10]: > 100 µM

SMILES: CCCCCCCCCC[C@H](O)[C@H]1CC[C@H]([C@H]2CC[C@H]([C@H](O)CC[C@H](O)CCCCCCC[C@@H](O)CC3=C[C@H](C)OC3=O)O2)O1
- TGI [1]: > 100 µM
- TGI [2]: > 100 µM
- TGI [3]: > 100 µM
- GI50 [4]: 38.1 µM
- TGI [4]: > 100 µM
- GI50 [5]: 3.98 µM
- TGI [5]: > 100 µM
- TGI [6]: > 100 µM
- TGI [7]: > 100 µM
- TGI [8]: > 100 µM
- GI50 [9]: 1.26 µM
- TGI [9]: > 100 µM
- TGI [10]: > 100 µM

SMILES: C=C1[C@@H](O)C[C@@]23CC[C@@H]4[C@@]5(C)CC[C@@H](OC(C)=O)C(C)(C)[C@@H]5C[C@@H](OC5OC(COC(C)=O)C(O)C(O)C5O)[C@@]4(C)C2=CC[C@H]3[C@H]1C (some centres undefined)
- TGI [1]: 18.9 µM
- TGI [2]: 26 µM
- TGI [3]: 25.9 µM
- TGI [4]: 8.16 µM
- TGI [5]: 7.77 µM
- TGI [6]: 3.88 µM
- TGI [7]: 26.7 µM
- TGI [8]: 21.1 µM
- TGI [9]: 10.9 µM
- TGI [10]: 24.5 µM

SMILES: CC(=O)N/N=C1/NN(C(C)=O)C2(S1)C(=O)Nc1ccc(Br)cc12 (centres undefined)
- TGI [1]: > 100 µM
- TGI [2]: > 100 µM
- TGI [3]: > 100 µM
- TGI [4]: > 100 µM
- TGI [5]: > 100 µM
- TGI [6]: > 100 µM
- TGI [7]: > 100 µM
- TGI [8]: > 100 µM
- TGI [9]: > 100 µM
- TGI [10]: > 100 µM

SMILES: CC(=O)OC[C@]1(C(=O)C(O)c2ccoc2)[C@H](C)CC[C@@]23COC(=O)C2=CCC[C@@H]31 (some centres undefined)
- TGI [1]: > 10 µM
- TGI [2]: > 10 µM
- TGI [3]: > 10 µM
- TGI [4]: > 10 µM
- TGI [5]: > 10 µM
- TGI [6]: > 10 µM
- TGI [7]: > 10 µM
- TGI [8]: > 10 µM
- TGI [9]: > 10 µM
- TGI [10]: > 10 µM

SMILES: CC(=O)NS(=O)(=O)c1ccc(NC(=O)c2c3ccccc3nc3ccccc23)cc1
- TGI [1]: > 100 µM
- TGI [2]: > 100 µM
- TGI [3]: > 100 µM
- TGI [4]: > 100 µM
- TGI [5]: > 100 µM
- TGI [6]: > 100 µM
- TGI [7]: > 100 µM
- TGI [8]: > 100 µM
- TGI [9]: > 100 µM
- TGI [10]: > 100 µM

SMILES: CCCCOC(C)(C)/C=C/C(O)[C@](C)(O)[C@H]1[C@H](O)C[C@@]2(C)[C@@H]3CCc4c(cc(OC5OC(CO)C(O)C(O)C5O)c(O)c4C)C3(C)C(=O)C[C@]12C (some centres undefined)
- TGI [1]: > 100 µM
- TGI [2]: > 100 µM
- TGI [3]: > 100 µM
- TGI [4]: > 100 µM
- TGI [5]: > 100 µM
- TGI [6]: > 100 µM
- TGI [7]: > 100 µM
- TGI [8]: > 100 µM
- TGI [9]: > 100 µM
- TGI [10]: > 100 µM

SMILES: COc1ccc(N[C@H](CSc2ccc(C)cc2)c2ccc(F)cc2)cc1
- TGI [1]: > 100 µM
- TGI [2]: > 100 µM
- TGI [3]: > 100 µM
- TGI [4]: > 100 µM
- TGI [5]: > 100 µM
- TGI [6]: > 100 µM
- TGI [7]: > 100 µM
- TGI [8]: > 100 µM
- TGI [9]: > 100 µM
- TGI [10]: > 100 µM

SMILES: CC1(C)C(c2ccccc2)=[N+]([O-])C(C)(C)N1O
- TGI [1]: > 10 µM
- TGI [2]: > 10 µM
- TGI [3]: > 10 µM
- TGI [4]: > 10 µM
- TGI [5]: > 10 µM
- TGI [6]: > 10 µM
- TGI [7]: > 10 µM
- TGI [8]: > 10 µM
- TGI [9]: > 10 µM
- TGI [10]: > 10 µM

SMILES: O=C(CN1CCCCC1)CC(O)(C(F)(F)F)C(F)(F)F
- TGI [1]: > 100 µM
- TGI [2]: > 100 µM
- TGI [3]: > 100 µM
- TGI [4]: > 100 µM
- TGI [5]: > 100 µM
- TGI [6]: > 100 µM
- TGI [7]: > 100 µM
- TGI [8]: > 100 µM
- TGI [9]: > 100 µM
- TGI [10]: > 100 µM

SMILES: C/C(N=Nc1nc2ccccc2s1)=C1/C=CC=CN1O
- TGI [1]: > 100 µM
- TGI [2]: > 100 µM
- TGI [3]: 6.03 µM
- TGI [4]: > 100 µM
- TGI [5]: 60.5 µM
- TGI [6]: 0.0978 µM
- TGI [7]: > 100 µM
- TGI [8]: 91.6 µM
- TGI [9]: > 100 µM
- TGI [10]: > 100 µM

SMILES: COc1cc2c(cc1OC)C1c3ccccc3CCN1CC2 (centres undefined)
- TGI [1]: > 100 µM
- TGI [2]: > 100 µM
- TGI [3]: > 100 µM
- TGI [4]: > 100 µM
- TGI [5]: > 100 µM
- TGI [6]: > 100 µM
- TGI [7]: > 100 µM
- TGI [8]: > 100 µM
- TGI [9]: > 100 µM
- TGI [10]: 75.1 µM

SMILES: Cc1cc(-c2nc3c(O)cccc3s2)ccc1N
- TGI [1]: 95.1 µM
- TGI [2]: 57.6 µM
- TGI [3]: 52.9 µM
- TGI [4]: 65 µM
- TGI [5]: 32.6 µM
- TGI [6]: > 100 µM
- TGI [7]: 56.1 µM
- TGI [8]: 39.9 µM
- TGI [9]: 40.1 µM
- TGI [10]: > 100 µM

SMILES: O=c1cc(/C=C/c2ccc(O)c(O)c2)oc(/C=C/c2ccc(O)c(O)c2)c1
- TGI [1]: 17.7 µM
- TGI [2]: 17.8 µM
- TGI [3]: 18.1 µM
- TGI [4]: 16 µM
- TGI [5]: 30.8 µM
- TGI [6]: 6.92 µM
- TGI [7]: 11.4 µM
- TGI [8]: 4 µM
- TGI [9]: > 25.2 µM
- TGI [10]: 6.73 µM
